From US20230050070A1, “Antimicrobial Composition” (ATLANTIC TECHNOLOGIECAL UNIVERSITY, priority 2019, published 2023) come the findings set out here.

For the assay, the system named is various species of microorganism. Put plainly: Well diffusion / Kirby-Bauer test, zones of inhibition. The class given is cell-based. The note with it: SA and ASA tested alone, without A^3IS. The procedure: The purpose of the Kirby-Bauer disk diffusion susceptibility test is to determine the sensitivity or resistance of pathogenic aerobic and facultative anaerobic bacteria to various antimicrobial compounds.
Escherichia coli (NCIMB 8545), Staphylococcus aureus (NCIMB 951 and Pseudomonas aeruginosa (NCIMB 8626) are grown on nutrient agar or in nutrient broth for 24 hrs at 37° C.
Candida albicans (NCIMB 3179) and Saccharomyces cerevisiae are grown on sabaroud dextrose agar or in sabaroud dextrose broth for 24 hrs at 37° C.,
Bacterial growth is monitored by measuring the culture optical density (OD) in a spectrophotometer (Anthos 2010) at a wavelength of 620 nm.
Agar plates are inoculated by swabbing overnight culture onto the plate surface. Plates are allowed to stand at room temperature for 15 minutes before use. Wells 8.2 mm diameter are bored into the surface of the agar. A 180 μl sample is placed into each well. The samples diffuse into the agar around the well and are assayed for an ability to produce a zone of inhibition. Plates are incubated for 24, 48 or 72 hrs and zones of inhibition are measured using an Autodata automatic zone reader. The diameter of zones, including the diameter of the well (8.2 mm), is recorded.
Different microbial strains were each plated out according to the above-mentioned methods. […]

Consider `CC(=O)Oc1ccccc1C(=O)O` [ASA, Acetyl salicylic acid], for which the antimicrobial activity entry is “no discernible activity”.
Take `O=C(O)c1ccccc1O` [SA, Salicylic acid]: the antimicrobial activity entry is listed as “no discernible activity”.
